Key:
[1] = system: traumatic brain injury; CA3 hippocampus neurons; test: Traumatic brain injury model (delayed neuronal death), i.c.v. administration; type: in vivo, Wistar rats; conditions: for Effect of treatment on neuronal loss in the CA3 hippocampus (ANOVA): 10 μg i.c.v.; for Neuroprotective effect with delayed administration: administered i.c.v. up to 8 hrs after trauma; for Effect on hippocampal neuronal loss: injection of 10 μg into the right cerebral ventricle; for Neuroprotective effect in the traumatic brain injury model: result in words; for Neuronal densities CA3 hippocampus: traumatized right side, 10 μg i.c.v. 15 min after trauma, 3 days after injury, mean ± SD
Experimental: (§1) Contusing device. The contusing device consisted of a stainless steel tube, 40 cm in length, perforated at 1 cm intervals to prevent air compression in the tube. Wistar rats, 230–270 g, were anesthetized with chloral hydrate, 400 mg/kg i.p., a craniotomy over the right hemisphere was made, the device guiding a falling weight onto the footplate resting upon the surface of the dura was placed perpendicular to the surface of the skull, and a force of 380 g×cm produced by a 20 g weight was selected to produce brain contusion. A maximum of 2.5 mm depression of the brain surface was allowed to avoid mechanical puncture of the dura. The center of the footplate was stereotaxically positioned 1.5 mm posterior and 2.5 mm lateral to the bregma. The rats underwent perfusion fixation 3 days after brain injury with a solution containing 4% paraformaldehyde in phosphate buffer.
Intracerebroventricular (i.c.v.) injections: Compounds were administered i.c.v. by means of a Hamilton syringe in a volume of 5–15 μl. Injections were performed over 5 min, 15 min−8 hrs after trauma using the following stereotaxic coordinates: AP=−0.5 mm, L=−2 mm and V=−5.5 in relation to bregma (Swanson, L. W. (1992) Brain Maps: Structure of the Rat Brain, Elsevier, Amsterdam).
(§2) Morphometric analysis in hippocampus. The damage in the hippocampal CA3 subfield was determined stereologically at 5 different rostrocaudal levels extending from 10.21 to 11.21 mm (Swanson, L. W. (1992) Brain Maps: Structure of the Rat Brain, Elsevier, Amsterdam) and throughout its mediolateral axis three days after traumatic injury. To quantitatively assess neuronal loss in the hippocampus, stereological disector technique (Cruz-Orive, L. M. & Weibel, E. R. (1990) Am. J. Physiol. 258, L148–L156) was used to estimate numerical density (NV) of pyramidal neurons. An unbiased counting frame (0.05 mm×0.05 mm; disector height 0.01 mm) and a high-aperture objective (×40) were used for sampling. Normal neurons were identified by the presence of the typical nuclei with clear nucleoplasm and distinct nucleolus surrounded by cytoplasm containing Nissl substance. The border between CA2 and CA3 subfields was considered as the point where the looser arrangement of large pyramidal cells goes into densely packed pyramidal cells of the subfield CA3. An arbitrary line connecting the lateral ends of the dentate granule cell layers was considered a junction between subfields CA3 and CA4.
Dose responses of the neuroprotective effect of the compounds with the formulae 6 and 7 when administered i.c.v. 15 min after trauma to adult Wistar rats were measured. Neuronal densities were determined in the CA3 hippocampal subfield as described in the methods. Densities of CA3 neurons±Standard Deviation (=SED) in 6 stereotactic levels in the left non-traumatized side of vehicle treated rats and the traumatized right side of vehicle treated rats and in rats treated with the compounds with the formulae 6 and 7 were measured and the results listed in table 1 below. In all of the following tables the numbers (“n”) indicate the number of rats per group, where applicable.

[2] = system: traumatic brain injury; CA3 hippocampus neurons; test: Traumatic brain injury model (delayed neuronal death), i.v. administration; type: in vivo, Wistar rats; conditions: for Neuronal densities CA3 hippocampus, i.v. administration: mean ± SD
Experimental: as §1
Intravenous injections: Compounds were administered i.v. using a 1 ml syringe attached to a 26 gauge needle. The needle was inserted into the left femoral vein following a small skin incision. Compounds were administered in a volume of 1 ml/kg body weight over 30 sec.
as §2
(P<0.001; n=8 per group).

Structure (SMILES)	Effect of treatment on neuronal loss in the CA3 hippocampus (ANOVA) [1]	Neuroprotective effect with delayed administration [1]	Effect on hippocampal neuronal loss [1]	Neuroprotective effect in the traumatic brain injury model [1]	Neuronal densities CA3 hippocampus ([1]; stereotactic level 10.21)	Neuronal densities CA3 hippocampus ([1]; stereotactic level 10.41)	Neuronal densities CA3 hippocampus ([1]; stereotactic level 10.61)	Neuronal densities CA3 hippocampus ([1]; stereotactic level 10.81)	Neuronal densities CA3 hippocampus ([1]; stereotactic level 11.01)	Neuronal densities CA3 hippocampus ([1]; stereotactic level 11.21)	further results
O=C(O)CN1C(=O)[C@@H](NC(=O)C2(C[C@@H](CCc3ccccc3)C(=O)O)CCCC2)CCc2ccccc21 [Formula 6, (2R)-2-{[1-({[(3S)-1-(carboxymethyl)-2-oxo-2,3,4,5-tetrahydro-1H-1-benzaepin-3-yl]amino}carbonyl)cyclopentyl]methyl}-4-phenylbutanoic acid]	significant protective effect	still evident	partially prevented hippocampal neuronal loss	dose-dependent neuroprotective effects	112.5 ± 11.40 cells × 10^3/mm^3	103.75 ± 11.80 cells × 10^3/mm^3	101.75 ± 14.80 cells × 10^3/mm^3	98.50 ± 10.68 cells × 10^3/mm^3	96.75 ± 13.98 cells × 10^3/mm^3	101.75 ± 15.17 cells × 10^3/mm^3	–
O=C(O)CN1C(=O)[C@@H](NC(=O)C2(C[C@@H](CCc3cccc4ccccc34)C(=O)O)CCCC2)CCc2ccccc21 [Formula 7, (2R)-2-{[1-({[(3S)-1-(carboxymethyl)-2-oxo-2,3,4,5-tetrahydro-1H-1-benzazepin-3-yl]amino)carbonyl)cyclopentyl]methyl}-4-(1-naphthyl)butanoic acid]	significant protective effect	still evident	partially prevented hippocampal neuronal loss	dose-dependent neuroprotective effects	107.25 ± 15.19 cells × 10^3/mm^3	100.25 ± 14.71 cells × 10^3/mm^3	93.50 ± 16.96 cells × 10^3/mm^3	93.50 ± 12.36 cells × 10^3/mm^3	101.50 ± 18.81 cells × 10^3/mm^3	107.75 ± 16.51 cells × 10^3/mm^3	Effect of treatment on neuronal loss in the CA3 hippocampus (ANOVA) ([2]; both tested doses (30 and 300 mg/kg i.v.), P<0.001, n=8 per group): significant protective effect; Neuroprotection of 300 mg/kg compared with 30 mg/kg (ANOVA) ([2]; i.v., 300 mg/kg vs 30 mg/kg): significantly better neuroprotection; Effect on hippocampal neuronal loss ([2]; injection of 30 or 300 mg/kg i.v.): partially prevented hippocampal neuronal loss; Neuronal densities CA3 hippocampus, i.v. administration ([2]; stereotactic level 10.21, 30 mg/kg i.v.): 107.50 ± 6.99 cells × 10^3/mm^3; Neuronal densities CA3 hippocampus, i.v. administration ([2]; stereotactic level 10.21, 300 mg/kg i.v.): 126.50 ± 5.53 cells × 10^3/mm^3; Neuronal densities CA3 hippocampus, i.v. administration ([2]; stereotactic level 10.41, 30 mg/kg i.v.): 102.25 ± 7.89 cells × 10^3/mm^3; Neuronal densities CA3 hippocampus, i.v. administration ([2]; stereotactic level 10.41, 300 mg/kg i.v.): 117.75 ± 4.95 cells × 10^3/mm^3; Neuronal densities CA3 hippocampus, i.v. administration ([2]; stereotactic level 10.61, 30 mg/kg i.v.): 100.75 ± 9.91 cells × 10^3/mm^3; Neuronal densities CA3 hippocampus, i.v. administration ([2]; stereotactic level 10.61, 300 mg/kg i.v.): 110.00 ± 7.01 cells × 10^3/mm^3; Neuronal densities CA3 hippocampus, i.v. administration ([2]; stereotactic level 10.81, 30 mg/kg i.v.): 101.75 ± 9.65 cells × 10^3/mm^3; Neuronal densities CA3 hippocampus, i.v. administration ([2]; stereotactic level 10.81, 300 mg/kg i.v.): 106.75 ± 7.48 cells × 10^3/mm^3; Neuronal densities CA3 hippocampus, i.v. administration ([2]; stereotactic level 11.01, 30 mg/kg i.v.): 111.25 ± 7.55 cells × 10^3/mm^3; Neuronal densities CA3 hippocampus, i.v. administration ([2]; stereotactic level 11.01, 300 mg/kg i.v.): 116.50 ± 9.06 cells × 10^3/mm^3; Neuronal densities CA3 hippocampus, i.v. administration ([2]; stereotactic level 11.21, 30 mg/kg i.v.): 117.75 ± 10.11 cells × 10^3/mm^3; Neuronal densities CA3 hippocampus, i.v. administration ([2]; stereotactic level 11.21, 300 mg/kg i.v.): 125.25 ± 5.01 cells × 10^3/mm^3

From patent publication US7232813B2, “Neutral endopeptidase (NEP) and human soluble endopeptidase (hSEP) inhibitors for prophylaxis and treatment of neuro-degenerative disorders” (Solvay Pharmaceuticals B.V., priority 2004, dated 2007)
